In PubChem BioAssay (NCI):
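Where inhibition never reached the appropriate level, the endpoint shown equals the highest concentration tested. Otherwise, values were interpolated linearly from a five-concentration, 48-hour dose response in 96-well plates. GI50 marks 50% less growth. The concentration for full growth arrest is given as TGI.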 Where a SMILES comes first, the peptide text is derived from it.

Experiments:
Test in all cases: inhibition of tumour cell growth, NCI panel, 48 h
MDA-MB-435 = system: MDA-MB-435
SF-295 CNS = system: SF-295 CNS
HCT-15 colon = system: HCT-15 colon
IGROV1 ovarian = system: IGROV1 ovarian
SN12C renal = system: SN12C renal
DU-145 prostate = system: DU-145 prostate
A549 NSCLC = system: A549 NSCLC
COLO 205 colon = system: COLO 205 colon
MOLT-4 leukemia = system: MOLT-4 leukemia
MCF7 breast = system: MCF7 breast

Structure (SMILES)	GI50 (MDA-MB-435) [nM]	TGI (MDA-MB-435) [µM]	GI50 (SF-295 CNS)	TGI (SF-295 CNS)	GI50 (HCT-15 colon)	TGI (HCT-15 colon)	GI50 (IGROV1 ovarian)	TGI (IGROV1 ovarian)	GI50 (SN12C renal)	TGI (SN12C renal)	GI50 (DU-145 prostate)	TGI (DU-145 prostate)	TGI (A549 NSCLC)	TGI (COLO 205 colon)	TGI (MOLT-4 leukemia)	GI50 (A549 NSCLC)	GI50 (COLO 205 colon)	GI50 (MOLT-4 leukemia)	GI50 (MCF7 breast)	TGI (MCF7 breast)
OCCNCCCOc1ccc2ncnc(Nc3ccc(Oc4cccc(C(F)(F)F)c4)c(Cl)c3)c2c1	1720	3.21	1790 nM	3.24 µM	1540 nM	3.01 µM	584 nM	2.14 µM	1430 nM	2.83 µM	1330 nM	2660 nM	–	–	–	–	–	–	–	–
O=C(CC1(O)C(=O)Nc2ccccc21)c1ccc(O)cc1 (stereo not drawn)	–	–	–	> 100 µM	–	> 100 µM	–	> 100 µM	–	> 100 µM	–	–	> 100 µM	> 100 µM	> 100 µM	–	–	–	–	–
CN[C@@H](C)[C@H](N)c1ccccc1	–	–	–	> 100 µM	–	> 100 µM	–	> 100 µM	–	> 100 µM	–	–	> 100 µM	> 100 µM	> 100 µM	–	–	–	–	–
CCC(C)C1NC(=O)C2CCCN2C(=O)CNC(=O)C(C)NC(=O)C(Cc2ccccc2)NC(=O)C(C(C)C)NC1=O (stereo not drawn) (cyclo(GPIVFA); configuration not given here)	–	–	–	> 100 µM	–	> 100 µM	–	> 100 µM	–	> 100 µM	–	–	> 100 µM	> 100 µM	> 100 µM	–	–	–	–	–
COC(=O)C1C=NNC1C(=O)OC (stereo not drawn)	–	–	–	> 100 µM	–	> 100 µM	–	> 100 µM	–	> 100 µM	–	–	> 100 µM	> 100 µM	> 100 µM	–	–	–	–	–
C=C1C2CC(OC(C)=O)C3(C)C(c4ccoc4)OC(=O)[C@@H](O)[C@]13OC1C[C@H](OC(C)=O)C(C)(C)[C@H](CC(=O)OC)[C@]12C (stereo partly drawn)	–	–	–	> 100 µM	–	> 100 µM	–	> 100 µM	–	> 100 µM	–	–	> 100 µM	> 100 µM	> 100 µM	–	–	–	–	–
COc1ccc(-c2cc(-c3cc(Cl)cc(Br)c3O)[nH]c(=O)n2)cc1	–	–	–	32.7 µM	–	–	–	52.4 µM	–	32.3 µM	–	–	33.7 µM	29 µM	35.3 µM	–	–	–	–	–
O=S(=O)([O-])[O-].[Cl-].[NH2-].[NH2-].[NH2-].[NH2-].[Ru+3].c1ccncc1	–	–	–	> 100 µM	–	> 100 µM	–	> 100 µM	–	> 100 µM	–	–	> 100 µM	> 100 µM	> 100 µM	–	–	–	–	–
C/C(=N\NC(=S)N1CC2CCC(CC2)C1)c1cccc(C)n1	–	19.6	–	13.1 µM	307 nM	17.4 µM	–	13.9 µM	774 nM	12.6 µM	378 nM	7100 nM	12.9 µM	11.1 µM	0.00764 µM	248 nM	0.385 nM	< 0.1 nM	–	–
O=S1(=O)CCCS(=O)(=O)C(c2ccccc2)=C1c1ccccc1	–	–	–	–	–	> 100 µM	–	> 100 µM	–	> 100 µM	–	–	> 100 µM	–	> 100 µM	–	–	–	–	–
COc1ccc(/C=c2/sc3n(c2=O)NC2(CCC(C)CC2)NN=3)cc1 (stereo not drawn)	–	–	–	> 100 µM	–	–	–	> 100 µM	–	> 100 µM	–	–	> 100 µM	> 100 µM	> 100 µM	–	–	–	–	–
O=C1Nc2ccccc2/C1=C\c1nc(C2CCN(S(=O)(=O)c3ccc(F)cc3)CC2)n2ccccc12	–	–	2250 nM	11.2 µM	> 100000 nM	> 100 µM	2690 nM	> 100 µM	3050 nM	> 100 µM	4350 nM	> 100000 nM	> 100 µM	> 100 µM	> 100 µM	> 100000 nM	> 100000 nM	> 100000 nM	5720 nM	> 100 µM
CC1=C(C(=O)Nc2ccc([N+](=O)[O-])cc2)C(c2ccc3c(c2)OCO3)C(C(=O)Nc2ccc([N+](=O)[O-])cc2)=C(C)N1	–	–	–	> 100 µM	–	> 100 µM	–	> 100 µM	–	> 100 µM	–	–	> 100 µM	18.4 µM	–	–	–	–	–	–
COc1ccc(/C(Cl)=C(\c2ccc(OCCN(C)C)cc2)c2ccc(OC(=O)C(C)(C)C)cc2)cc1	–	–	–	28 µM	–	22.4 µM	–	32.9 µM	–	27.2 µM	–	–	28.3 µM	26.8 µM	14.7 µM	–	–	–	–	–
C=C(CC(=O)O)C(=O)O (tested in a mixture with another compound)	–	–	> 50 µg/mL	> 50 µg/mL	> 50 µg/mL	> 50 µg/mL	> 50 µg/mL	> 50 µg/mL	> 50 µg/mL	> 50 µg/mL	> 50 µg/mL	> 50 µg/mL	> 50 µg/mL	> 50 µg/mL	> 50 µg/mL	> 50 µg/mL	> 50 µg/mL	> 50 µg/mL	> 50 µg/mL	> 50 µg/mL
COC(=O)N/N=C(/CCC(=O)Nc1ccc(C)c(C)c1)CC(=O)C(C)(C)C	–	–	–	> 100 µM	–	> 100 µM	–	> 100 µM	–	> 100 µM	–	–	> 100 µM	> 100 µM	> 100 µM	–	–	–	–	–
O=[N+]([O-])c1cc(Cl)ccc1OCc1ccccc1	–	–	–	> 100 µM	–	> 100 µM	–	> 100 µM	–	> 100 µM	–	–	> 100 µM	> 100 µM	> 100 µM	–	–	–	–	–
CSc1nc(NC2OC(COC(C)=O)C(OC(C)=O)C(OC(C)=O)C2OC(C)=O)c(-c2csc(N)n2)c(=O)n1C (stereo not drawn)	–	–	–	> 100 µM	–	> 100 µM	–	> 100 µM	–	> 100 µM	–	–	> 100 µM	> 100 µM	> 100 µM	–	–	–	–	–

Structure (SMILES)	GI50 (MDA-MB-435) [nM]	TGI (MDA-MB-435) [µM]	GI50 (SF-295 CNS)	TGI (SF-295 CNS)	GI50 (HCT-15 colon)	TGI (HCT-15 colon)	GI50 (IGROV1 ovarian)	TGI (IGROV1 ovarian)	GI50 (SN12C renal)	TGI (SN12C renal)	GI50 (DU-145 prostate)	TGI (DU-145 prostate)	TGI (A549 NSCLC)	TGI (COLO 205 colon)	TGI (MOLT-4 leukemia)	GI50 (A549 NSCLC)	GI50 (COLO 205 colon)	GI50 (MOLT-4 leukemia)	GI50 (MCF7 breast)	TGI (MCF7 breast)
CCOC(=N)CC(=O)Nc1cccc(Cl)c1	–	–	–	> 100 µM	–	–	–	> 100 µM	–	> 100 µM	–	–	> 100 µM	> 100 µM	> 100 µM	–	–	–	–	–
COc1ccc2c(c1)[n+]([O-])c(-c1ccc(C)cc1)c(N)[n+]2[O-]	–	–	–	> 100 µM	–	> 100 µM	–	> 100 µM	–	> 100 µM	–	–	> 100 µM	36.4 µM	–	–	–	–	–	–
COc1ccc2c(c1)CC1c3c(ccc(OC)c3O)CC2N1C (stereo not drawn)	–	–	–	47.1 µM	–	> 100 µM	–	> 100 µM	–	> 100 µM	–	–	> 100 µM	34.8 µM	73.8 µM	–	–	–	–	–
Cc1ccc(C(SCC(N)C(=O)O)(c2ccccc2)c2ccccc2)cc1 (stereo not drawn)	–	–	46.5 nM	> 100 µM	218 nM	> 49.4 µM	141 nM	> 71.3 µM	130 nM	> 65.9 µM	181 nM	466 nM	> 100 µM	0.95 µM	> 100 µM	153 nM	98 nM	244 nM	32.4 nM	> 79.1 µM
CC(=O)[CH-]C(=O)c1ccccc1.CC(=O)[CH-]C(=O)c1ccccc1.Cl.[O-]c1ccccn1.[O-]c1ccccn1.[Ti+4]	–	–	47600 nM	> 100 µM	> 100000 nM	> 100 µM	> 100000 nM	> 100 µM	> 100000 nM	> 100 µM	–	–	> 100 µM	–	> 100 µM	> 100000 nM	–	> 100000 nM	–	–
CNS(=O)(=O)NN(C)S(=O)(=O)c1ccc2ccccc2c1	–	–	–	> 100 µM	–	> 100 µM	–	> 100 µM	–	> 100 µM	–	–	> 100 µM	> 100 µM	> 100 µM	–	–	–	–	–
CC1C[C@]2(C[C@@H](C)C(=O)O2)O[C@@H]2CC3(C)[C@@H]4CCC5C(C)(C)OC(=O)C[C@H]6OO[C@]4(CC[C@]3(C)C12)CC56O (stereo partly drawn)	–	–	–	> 100 µM	–	> 100 µM	–	> 100 µM	–	> 100 µM	–	–	> 100 µM	–	–	–	–	–	–	–
O=[N+]([O-])c1ccc(/C=C/c2csnn2)cc1	–	–	–	> 100 µM	–	> 100 µM	–	> 100 µM	–	> 100 µM	–	–	> 100 µM	–	> 100 µM	–	–	–	–	–
CC1(C)C=N[N+]2(C)C3C=CC(CC3)C12 (stereo not drawn)	–	–	–	> 100 µM	–	> 100 µM	–	> 100 µM	–	> 100 µM	–	–	> 100 µM	> 100 µM	> 100 µM	–	–	–	–	–
Cc1ccc(NC(=S)SCCC(=O)O)cc1	–	–	–	> 100 µM	–	> 100 µM	–	–	–	> 100 µM	–	–	> 100 µM	> 100 µM	> 100 µM	–	–	–	–	–
COc1cc2c(cc1OC)NC(=O)NC(Cc1ccc3c(c1)OCO3)CC2 (stereo not drawn)	–	–	–	> 100 µM	–	> 100 µM	–	> 100 µM	–	> 100 µM	–	–	> 100 µM	> 100 µM	> 100 µM	–	–	–	–	–
C=CC1(NS(=O)(=O)c2ccc(C)cc2)CCC(C(C)(C)C)CC1 (stereo not drawn)	–	–	–	–	–	> 100 µM	–	> 100 µM	–	> 100 µM	–	–	> 100 µM	> 100 µM	> 100 µM	–	–	–	–	–
Cc1cccc(N2C(=O)C(=O)C(c3nc4ccccc4s3)/C(=N/NC(=S)NN)C2=O)c1C (stereo not drawn)	–	–	–	> 100 µM	–	> 100 µM	–	> 100 µM	–	> 100 µM	–	–	–	> 100 µM	> 100 µM	–	–	–	–	–
CC1=C(Cl)C=CP(=O)(OC(C)C)C1 (stereo not drawn)	–	–	–	> 100 µM	–	> 100 µM	–	> 100 µM	–	> 100 µM	–	–	> 100 µM	> 100 µM	> 100 µM	–	–	–	–	–
CCOC(=O)[C@H]1Nc2ccc([N+](=O)[O-])cc2C2c3ccccc3CC21 (stereo partly drawn)	–	–	–	31.2 µM	–	41.5 µM	–	> 100 µM	–	43.2 µM	–	–	91.2 µM	> 100 µM	69.1 µM	–	–	–	–	–
Clc1ccc2nc(-c3ccccc3)nc(Cl)c2c1	–	–	–	> 100 µM	–	> 100 µM	–	> 100 µM	–	> 100 µM	–	–	> 100 µM	> 100 µM	> 100 µM	–	–	–	–	–
CCCCN[C@H]1C2C3CC4C5CC(C42)C1(C)C53 (stereo partly drawn)	–	–	–	> 100 µM	–	> 100 µM	–	> 100 µM	–	> 100 µM	–	–	> 100 µM	> 100 µM	> 100 µM	–	–	–	–	–
